Reference: patent US20220323479A1, “COMPOSITIONS AND METHODS USING ADENOSYLCOBALAMIN” (SOCIETE DES PRODUITS NESTLE S.A., priority 2019, published 2022)

Key:
[1] = test system: oxidative phosphorylation genes in skeletal muscle; test: Gene-set enrichment and network analysis of skeletal muscle (tibialis anterior) RNA of treated old rats; type: in vivo, Male Wistar rats; settings: 1 mg/kg s.c. 3 times a week, 5 months; for network analysis of regulated genes (protein-protein interactions): interaction score >0.9
Description: (§1) Male Wistar rats aged 3 months or 19 months were treated with adenosylcobalamin (Adenosyl-B12) or methylcobalamin (Methyl-B12) at a dose of 1 mg/kg 3 times a week during 5 months by subcutaneous injection. Control animals were injected with equivalent volumes of saline. After 5 months treatment, adult rats were defined as 8 months old rats and old (aged) animals were defined as 24 old rodents.
Total RNA was extracted from tibialis anterior using the Agencourt RNAdvance Tissue Kit. For Gene-set enrichment analysis and Network analysis, RNA quantity was measured with Ribogreen and RNA quality was checked using the Standard Sensitivity RNA Analysis Kit on a Fragment Analyzer. All cRNA targets were synthesized using the IVT plus kit and fragmented according to the Affymetrix protocol, based on the Eberwine T7 procedure. Briefly, 100 ng of total RNA were used to produce double-stranded cDNA, followed by in vitro transcription, and cRNA labeling with biotin. Gene-set enrichment analysis (GSEA) of skeletal muscle describe the significant pathway differentially expressed (FIG. 5A). For Network analysis (FIG. 5B), nodes with an interaction score >0.9 are represented in different gray levels and aggregated by biological function.

[2] = test system: human skeletal muscle myotubes; test: Oxygen consumption rate / ATP-synthase-dependent respiration (Seahorse XF96) in epibatidine-stimulated myotubes; type: cell-based; settings: myotubes treated 3 h, stimulated with epibatidine 10 μM, oligomycin 2.5 μg/ml; vs control
Description: (§2) To test the effect of adenosyl B12 and methyl B12 in human muscle myotubes, oxygen consumption rate and ATP production were measured in human myotubes, differentiated from primary adult muscle cells (HSMM). HSMM were purchased from Lonza (https://bioscience.lonza.com). HSMM were isolated from the upper arm or leg muscle tissue of normal donors and used after the second passage. HSMM were seeded in 96-well plates at a density of 12000 cells per well in SKM-M medium (ZenBio). Myotubes were differentiated from HSMM by growing the cells in DMEM/F-12 (Gibco) containing 2% horse serum, for 4 days. From the second growing day, the medium was not containing B12.
Oxygen consumption was measured using a XF96 instrument (Seahorse Biosciences, North Billerica, Mass., USA). After differentiation, respiration rates were determined every 7 min at 37° C. Myotubes were stimulated with 10 μM epibatidine. […] ATP synthase-dependent respiration was calculated as the difference in respiration rate before and after the addition of oligomycin.
(§3) For treatment, compounds were directly added to the cell culture or myotubes cultures 3 hours (acute treatment) or 3 days (chronic treatment) before measurements. Custom module analysis based on Excel (Microsoft) and GraphPad Prism 7.02 (GraphPad) software was used for quantification.

aged rats = test: Rotarod muscle performance / locomotor coordination; type: in vivo, Male Wistar rats; settings: 1 mg/kg s.c. 3 times a week, 5 months, vs control
Description: as §1
To determine muscle performance (FIG. 6), locomotor coordination was measured using rotarod device. […] The time of activity on rotarod is measured in seconds. Each animal was recorded 3 times, with a resting period of at least 10 min between each trial.

[3] = test system: human skeletal muscle myotubes; test: Luciferase-based ATP production evoked by epibatidine in myotubes; type: cell-based; settings: vs control
Description: as §2
ATP measurements were carried out using myotubes infected with the adenovirus (from Sirion biotech) expressing luciferase. Luminescence was measured at the Cytation 3 cell imaging reader (Biotek). Relative changes of ATP were measured 48 h after infection in a luminometer, in standard medium containing 145 mM NaCl, 5 mM KCl, 1 mM MgCl2, 1 mM CaCl2), 10 mM glucose and 10 mM Hepes, pH 7.4. Luciferine (5 μM) was added to promote ATP-dependent reaction and basal luminescence was normalized as 100%. ATP production was stimulated in myotubes by addition of epibatidine.
as §3

Structure (SMILES) | gene expression signature of oxidative phosphorylation genes (enrichment plot analysis, GSEA) ([1]; Adenosyl-B12 vs Methyl-B12) | network analysis of regulated genes (protein-protein interactions) [1] | ATP-synthase-dependent component of the respiration [2] | time of activity on rod (aged rats) | epibatine-stimulated ATP production ([3]; acute treatment, 3 h) | epibatine-stimulated ATP production ([3]; chronic treatment, 3 days)
C/C1=C2/[N-][C@H]([C@H](CC(N)=O)[C@@]2(C)CCC(=O)NC[C@@H](C)OP(=O)([O-])O[C@H]2[C@@H](O)[C@@H](n3cnc4cc(C)c(C)cc43)O[C@@H]2CO)[C@]2(C)N=C(/C(C)=C3N=C(/C=C4N=C1[C@@H](CCC(N)=O)C\4(C)C)[C@@H](CCC(N)=O)[C@]\3(C)CC(N)=O)[C@@H](CCC(N)=O)[C@]2(C)CC(N)=O.[CH2-][C@H]1O[C@@H](n2cnc3c(N)ncnc32)[C@H](O)[C@@H]1O.[Co] [Adenosyl B12, adenosylcobalamin] | specifically shows gene expression signature of oxidative phosphorylation genes in skeletal muscle | distinguished several clusters linked to mitochondrial respiratory chain complexes, oxidative phosphorylation and mitochondrial function | increases the ATP-synthase-dependent component of the respiration | significantly increased | potentiates epibatine-stimulated ATP production | potentiates epibatine-stimulated ATP production
C/C1=C2/[N-][C@H]([C@H](CC(N)=O)[C@@]2(C)CCC(=O)NC[C@H](C)OP(=O)([O-])O[C@H]2[C@@H](O)[C@@H](n3cnc4cc(C)c(C)cc43)O[C@@H]2CO)[C@]2(C)N=C(/C(C)=C3N=C(/C=C4N=C1[C@@H](CCC(N)=O)C\4(C)C)[C@@H](CCC(N)=O)[C@]\3(C)CC(N)=O)[C@@H](CCC(N)=O)[C@]2(C)CC(N)=O.[CH3-].[Co+3] [methyl B12, methylcobalamin, reference compound] | – | No network representation of oxidative phosphorylation genes is possible | does not increase the ATP-synthase-dependent component of the respiration | – | not methyl B12 potentiates epibatine-stimulated ATP production | –
